# In the supplement of paper PMC10307832:
# Legend:
# Experiment in all cases: relative viability (nuclei count vs DMSO), 5 days (fraction); higher = more cells survive
# AZD1208 + AZD7762 = compound: N[C@@H]1CCCN(c2c(/C=C3\SC(=O)NC3=O)cccc2-c2ccccc2)C1 [AZD1208] + NC(=O)Nc1cc(-c2cccc(F)c2)sc1C(=O)N[C@H]1CCCNC1 [AZD7762] (partner 0.2 µM)
# Method in brief: (§1)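 Lung cancer cell lines, seeded in 1536-well plates, were treated the following day by pin tool with a single drug or with five library-drug doses (not always all listed) in √10 steps on top of a fixed anchor-drug dose. Cells were fixed and nuclei stained in one step after 5 days, and nuclei were counted. Relative viability is the nuclei count for treated wells divided by that for vehicle wells, reported as medians of duplicate plates.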
# XMD14-99 + Bortezomib = compound: CN1CCN(CC1)C2=CC(=C(C=C2)NC3=NC(=C(S3)C(=O)C4=C(C=CC=C4Cl)Cl)N)OC [XMD14-99] + CC(C)C[C@H](NC(=O)[C@H](Cc1ccccc1)NC(=O)c1cnccn1)B(O)O [Bortezomib] (partner 0.002 µM)
# Method in brief: as §1
# XMD14-99 + Vorinostat = compound: CN1CCN(CC1)C2=CC(=C(C=C2)NC3=NC(=C(S3)C(=O)C4=C(C=CC=C4Cl)Cl)N)OC [XMD14-99] + O=C(CCCCCCC(=O)Nc1ccccc1)NO [Vorinostat] (partner 1 µM)
# Method in brief: as §1
# AZD1208 + Phenformin = compound: N[C@@H]1CCCN(c2c(/C=C3\SC(=O)NC3=O)cccc2-c2ccccc2)C1 [AZD1208] + N=C(N)NC(=N)NCCc1ccccc1 [Phenformin] (partner 250 µM)
# Method in brief: as §1
Cell Line,relative viability (AZD1208 + AZD7762; first compound 0.08 µM),relative viability (AZD1208 + AZD7762; first compound 0.253 µM),relative viability (AZD1208 + AZD7762; first compound 0.8 µM),relative viability (AZD1208 + AZD7762; first compound 2.53 µM),relative viability (AZD1208 + AZD7762; first compound 8 µM),relative viability (XMD14-99 + Bortezomib; first compound 0.08 µM),relative viability (XMD14-99 + Bortezomib; first compound 0.8 µM),relative viability (XMD14-99 + Bortezomib; first compound 2.53 µM),relative viability (XMD14-99 + Bortezomib; first compound 8 µM),relative viability (XMD14-99 + Vorinostat; first compound 0.08 µM),relative viability (XMD14-99 + Vorinostat; first compound 0.8 µM),relative viability (XMD14-99 + Vorinostat; first compound 2.53 µM),relative viability (XMD14-99 + Vorinostat; first compound 8 µM),relative viability (AZD1208 + Phenformin; first compound 0.08 µM),relative viability (AZD1208 + Phenformin; first compound 0.253 µM),relative viability (AZD1208 + Phenformin; first compound 0.8 µM),relative viability (AZD1208 + Phenformin; first compound 2.53 µM),relative viability (AZD1208 + Phenformin; first compound 8 µM)
NCI-H3122,1.07,1.04,0.952,1.08,0.894,0.965,0.948,0.913,0.692,0.962,0.991,0.923,0.707,0.413,0.4,0.406,0.417,0.422
EPLC-272H,0.276,0.339,0.205,0.189,0.271,0.886,1.01,0.904,0.912,0.476,0.399,0.401,0.419,0.313,0.329,0.305,0.272,0.244
NCI-H1915,0.642,0.76,0.766,0.778,0.673,1.03,0.97,0.872,0.904,0.519,0.491,0.486,0.377,0.366,0.402,0.372,0.348,0.352
NCI-H647,0.638,0.547,0.466,0.378,0.497,0.914,1.04,0.928,0.745,0.522,0.581,0.648,0.582,0.459,0.837,0.344,0.344,0.352
NCI-H441,1.12,1.16,0.936,1.21,1.16,0.562,0.653,0.473,0.587,0.823,0.75,0.745,0.681,0.782,0.66,0.609,0.641,0.556
NCI-H23,0.245,0.251,0.243,0.228,0.29,0.95,0.908,1.12,0.728,0.641,0.581,0.604,0.464,0.793,0.828,0.627,0.798,0.609
NCI-H650,1.05,1.09,0.795,0.833,0.871,0.97,0.847,0.724,0.649,0.348,0.455,0.439,0.411,0.535,0.51,0.448,0.416,0.427
NCI-H2087,1.29,1.45,1.35,1.46,1.32,0.85,0.705,0.709,0.45,0.617,0.668,0.864,0.449,0.46,0.554,0.41,0.481,0.336
NCI-H838,0.931,1.02,0.887,0.993,1.01,0.826,0.828,0.674,0.491,0.685,0.626,0.577,0.414,0.524,0.704,0.425,0.583,0.485
NCI-H460,0.844,0.716,0.643,0.824,0.7,1.06,1.15,0.983,0.784,0.735,0.693,0.625,0.49,0.483,0.697,0.574,0.489,0.545
LOU-NH91,0.74,0.714,0.71,0.684,0.667,0.498,0.416,0.451,0.447,0.947,1.03,0.805,0.725,0.715,0.691,0.659,0.684,0.574
NCI-H322M,0.627,0.545,,0.53,0.552,1.12,1.33,1.44,1.24,0.862,0.965,0.852,0.746,0.761,0.75,0.731,0.741,0.782
NCI-H727,0.586,0.708,0.502,0.441,0.518,0.895,0.827,0.625,0.575,1.25,0.989,1.06,0.994,0.359,0.497,0.514,0.532,0.524
NCI-H1734,0.499,0.543,0.469,0.465,0.425,0.873,0.847,0.822,0.707,0.803,0.785,0.799,0.581,0.392,0.426,0.336,0.293,0.264
LXF-289,1.13,1.27,1.19,1.22,1.38,1.04,0.978,0.945,0.841,0.754,0.696,0.726,0.738,0.507,0.55,0.472,0.528,0.518
H3255,1.01,0.992,0.898,0.912,0.845,0.729,0.895,0.532,0.297,0.756,0.74,0.717,0.591,0.37,0.353,0.372,0.401,0.405
201T,0.669,0.654,0.565,0.693,0.511,1.11,1.08,1.03,1.03,0.962,0.93,0.948,0.815,0.434,0.444,0.429,0.427,0.351
HOP-62,0.859,0.794,0.612,0.66,0.824,0.604,0.694,0.863,0.605,0.668,0.804,0.661,0.441,0.689,0.745,0.664,0.628,0.613
